We go through 36 compounds from patent US7767824B2, “Heterocyclic compounds and cerebral function improvers containing the same as the active ingredient” (Zenyaku Kogyo Kabushiki Kaisha, priority 2001, dated 2010).

The subject of data set [1] is scopolamine-induced amnesia of rats. Briefly: Effects on scopolamine-induced amnesia, passive avoidance task (oral administration). The class given is in vivo, rat. As to conditions: 60 min before trial, scopolamine hydrobromide 2 mg/kg i.p., latency 24 h after shock, male Sprague Dawley rats; for inhibition in vivo at 0.01 mg/kg / inhibition in vivo at 1 mg/kg: Rattus norvegicus, po, read-out: Inhibitory rate (%). An excerpt:
Male rats of the Strague Dawley strain at 8 weeks of age (260±2 g body weight) were used for evaluation through passive avoidance task. The apparatus of passive avoidance task comprises illuminated and dark chambers which are separated from each other by a wall with a door. Floors are constituted by grids made of stainless steel; only the grid in the dark chamber is furnished with wiring for electrification.
Effected on the first and second days of testing was preparative training; each rat was placed in the illuminated chamber and left for 3 minutes to habituate to the apparatus. On the third day of testing, the rats were individually placed in the illuminated chamber and after entering the dark chamber, the door was closed and the floor grid was electrified to deliver electric shock (100 V, 0.4 mA, a period of 0.8 sec). In order to induce amnesia, scopolamine hydrobromide (2 mg/kg) was intraperitoneally injected 20 minutes before the electric shock was delivered. Retention in memory on the electric shock was tested 24 hours later; more specifically, retention in passive avoidance was measured in terms of a time interval (latency) from placement of each rat in the illuminated chamber to its entry into the dark chamber. The latency over 300 seconds was recorded as 300 seconds. Respective test compounds were suspended in an aqueous solution of 1% carboxymethyl cellulose and orally administered at a dose of 0.01 or 1 mg/kg 60 minutes before the trial.
Antiamnesic effects of the test compounds were evaluated by inhibitory rate (%) which is calculated by the following formula:
[formula] wherein T stands for latency and SC, administration of scopolamine hydrobromide. Experimental results are shown in the following table in which, as to each of the test compounds, only the dose showing higher inhibitory rate was indicated.

Marks after values point to notes of the source that are not given here. Where only a bound is given, the exact number is not on record here.

Consider `O=C1N=C2c3ccccc3C=CN2C12CC=CC2` [compound 28, spiro[imidazo[2,1-a]isoquinolin-2 (3H)-one-3,1′-(3′-cyclopentene)]], for which the “Inhibitory rate (%)” value in data set [1] (dose 0.01 mg/kg p.o.) is reported as 88.0** %.
The same measure, in the same setting: as for `O=C1N=C2C=CC=CN2C12Cc1cccc(F)c1C2` (centres unmarked) [compound 18, spiro[imidazo[1,2-a]pyridin-2(3H)-one-3,2′-(4′-fluoroindan)]], the figure is 90.3** %.
For the compound `O=C1N=C2C=CC=CN2C12Cc1ccc(C(F)(F)F)cc1C2` (centres unmarked) [compound 26, spiro[imidazo[1,2-a]pyridin-2(3H)-one-3,2′-(5′-trifluoromethylindan)]], the “Inhibitory rate (%)” value in data set [1] (dose 1 mg/kg p.o.) is recorded as 74.3** %.
For the compound `O=C1N=C2C=CC=CN2C1Cc1ccccc1` (centres unmarked) [compound 14, 3-benzylimidazo[1,2-a]pyridin-2(3H)-one], the melting point was 182 °C (dec.). Also, in data set [1] (dose 0.01 mg/kg p.o.), the inhibition in vivo at 0.01 mg/kg was 53.6%.
On to `O=C1N=C2CCCCN2C12Cc1cc3ccccc3cc1C2` [compound 32, spiro[5,6,7,8-tetrahydroimidazo[1,2-a]pyridin-2(3H)-one-3,2′-benzo[f]indan]], for which the “Inhibitory rate (%)” value in data set [1] (dose 0.01 mg/kg p.o.) is recorded as 61.4* %.
Regarding `O=C1N=C2C=CC=CN2C12Cc1cc3nsnc3cc1C2` [compound 23, spiro[imidazo[1,2-a]pyridin-2(3H)-one-3,2′-((1,2,5-thiadiazo)[4,5-c]indan)]], the “Inhibitory rate (%)” value in data set [1] (dose 0.01 mg/kg p.o.) is reported as 88.2** %.
Still for that read-out and setting: as for `O=C1N=C2CCCCN2C12Cc1ccccc1C2` [compound 33, spiro[5,6,7,8-tetrahydroimidazo[1,2-a]pyridin-2(3H)-one-3,2′-indan]], the figure is 66.1** %; as for `O=C1N=C2C=CC=CN2C12Cc1cc3ccccc3cc1C2` [compound 11, spiro[imidazo[1,2-a]pyridin-2(3H)-one-3,2′-benzo[f]-indan]], 80.4** %.
Regarding `O=C1N=C2SC=CN2C1(Cc1ccc(F)cc1)Cc1ccc(F)cc1` [compound 1, 5,5-bis(4-fluorobenzyl)imidazo[2,1-b]thiazol-6(5H)-one], the inhibition in vivo at 1 mg/kg in data set [1] (dose 1 mg/kg p.o.) came to 56.1%.
In the case of “spiro[imidazo[2,1-a]isoquinolin-2(3H)-one-3,21-(1,2,5-thiadiazo)[4,5-c]indan)] [compound 24]”, the “Inhibitory rate (%)” value in data set [1] (dose 0.01 mg/kg p.o.) is reported as 97.1** %.
For the compound `CN1C=NC(Cc2ccccc2)(Cc2ccccc2)C1=O` [compound 16, 4,4-dibenzyl-1-methyl-5-oxo-4,5-dihydroimidazol], the inhibition in vivo at 0.01 mg/kg in data set [1] (dose 0.01 mg/kg p.o.) amounted to 73.3%.
`CCCCC1(CCCC)C(=O)N=C2CCCCN21` [compound 13, 3,3-dibutyl-5,6,7,8-tetrahydroimidazo[1,2-a]pyridin-2 (3H)-one] registered a melting point of 35 to 40 °C. Besides, the inhibition in vivo at 1 mg/kg in data set [1] (dose 1 mg/kg p.o.) stood at 49.6%.
As to `CCCC1(CCC)C(=O)N=C2CCCCN21` [compound 15, 3,3-dipropyl-5,6,7,8-tetrahydroimidazo[1,2-a]pyridin-2(3H)-one], the inhibition in vivo at 1 mg/kg in data set [1] (dose 1 mg/kg p.o.) came out at 61.5%.
With `CC1=CN2C(=NC(=O)C2(Cc2ccccc2)Cc2ccccc2)S1` [compound 6, 5,5-dibenzyl-2-methylimidazo[2,1-b]thiazol-6(5H)-one], the melting point is > 300 °C. The inhibition in vivo at 0.01 mg/kg in data set [1] (dose 0.01 mg/kg p.o.) was determined as 66.6%.
Consider `O=C1N=C2C=CC=CN2C12Cc1ccc(I)cc1C2` (centres unmarked) [compound 20, spiro[imidazo[1,2-a]pyridin-2(3H)-one-3,2′-(5′-iodoindan)]], for which, in data set [1] (dose 1 mg/kg p.o.), the “Inhibitory rate (%)” value is given as 72.4** %.
Turning to `COc1ccc2c(c1)CC1(C2)C(=O)N=C2C=CC=CN21` (centres unmarked) [compound 19, spiro[imidazo[1,2-a]pyridin-2(3H)-one-3,2′-(5′-methoxyindan)]], the “Inhibitory rate (%)” value in data set [1] (dose 1 mg/kg p.o.) is on record as 83.4** %.
Regarding `CC=CCC1(CC=CC)C(=O)N=C2N=CC=CN21` (centres unmarked) [compound 17, 3,3-di(2-butenyl)imidazo[1,2-a]pyrimidin-2(3H)-one], the melting point is 149.5 °C (dec.). Also, the inhibition in vivo at 0.01 mg/kg in data set [1] (dose 0.01 mg/kg p.o.) came to 54.4%.
In the case of `N#Cc1cccc2c1CC1(C2)C(=O)N=C2C=CC=CN21` (centres unmarked) [compound 21, spiro[imidazo[1,2-a]pyridin-2(3H)-one-3,2′-(4′-cyanoindan)]], the “Inhibitory rate (%)” value in data set [1] (dose 1 mg/kg p.o.) is on record as 52.4* %.
The compound `O=C1N=C2CCCCN2C1(C1CCCCC1)C1CCCCC1` [compound 12, 3,3-dicyclohexyl-5,6,7,8-tetrahydroimidazo[1,2-a]-pyridin-2(3H)-one] returned a melting point of 218 to 220 °C. For the same compound, the inhibition in vivo at 0.01 mg/kg in data set [1] (dose 0.01 mg/kg p.o.) was 53.5%.
`O=C1N=C2C(OCc3ccccc3)=CC=CN2C12CC=CC2` [compound 29, spiro[8-benzyloxyimidazo[1,2-a]pyridin-2(3H)-one-3,1′-(3′-cyclopentene)]]: the “Inhibitory rate (%)” value in data set [1] (dose 1 mg/kg p.o.) is 87.7** %.
On to `Oc1nc2ccccn2c1Cc1ccc2ccccc2c1` [compound 10, 2-hydroxy-3-(2-naphtylmethyl)imidazo[1,2-a]pyridin], for which the “Inhibitory rate (%)” value in data set [1] (dose 0.01 mg/kg p.o.) is 40.8* %.
Consider `O=C1N=C2N=CC=CN2C1(Cc1cccs1)Cc1cccs1` [compound 8, 3,3-bis(2-thienylmethyl)imidazo[1,2-a]pyrimidin-2(3H)-one], for which the melting point was 192 °C (dec.). In data set [1] (dose 0.01 mg/kg p.o.), the inhibition in vivo at 0.01 mg/kg was 58.9%.
In the case of `O=C1N=C2N=CC=CN2C12Cc1ccccc1C2` [compound 25, spiro[imidazo[1,2-a]pyrimidin-2(3H)-one-3,2′-indan]], the “Inhibitory rate (%)” value in data set [1] (dose 1 mg/kg p.o.) is reported as 78.3* %.
The same measure, in the same setting: as for `O=C1N=C2C=CC=CN2C12Cc1ccc3ccccc3c1C2` (centres unmarked) [compound 27, spiro[imidazo[1,2-a]pyridin-2(3H)-one-3,2′-benzo[e]-indan]], the figure is 64.9** %.
With `O=C1N=C2SC=CN2C1(Cc1cccs1)Cc1cccs1` [compound 7, 5,5-bis(2-thienylmethyl)imidazo[2,1-b]thiazol-6(5H)-one], the melting point is 286 °C (dec.).
On to `O=C1N=C2c3ccccc3C=CN2C12CCCC2` [compound 31, spiro[imidazo[2,1-a]isoquinolin-2(3H)-one-3,1′-cyclopentane]], for which, in data set [1] (dose 0.01 mg/kg p.o.), the “Inhibitory rate (%)” value is 56.7* %.
For `COc1cc2c(cc1OC)C(=O)C(CC1CCN(Cc3ccccc3)CC1)C2` (racemic) [compound C, (R,S)-1-benzyl-4-(5,6-dimethoxy-1-indanon-2-yl)-methylpiperidine, reference compound], the inhibition in vivo at 0.01 mg/kg in data set [1] (dose 0.01 mg/kg p.o.) stood at 12.5%. In addition, the inhibition in vivo at 1 mg/kg in data set [1] (dose 1 mg/kg p.o.) came out at 24.7%.
For `O=C1N=C2c3ccccc3C=CN2C12Cc1ccccc1C2` [compound 22, spiro[imidazo[2,1-a]isoquinolin-2(3H)-one-3,2′-indan]], in data set [1] (dose 0.01 mg/kg p.o.), the “Inhibitory rate (%)” value is listed as 76.5** %.
Regarding `O=C1N(c2ccccc2)c2ccccc2C1(Cc1ccncc1)Cc1ccncc1` [compound A, 3,3-bis(4-pyridylmethyl)-1-phenylindolin-2-one, reference compound], in data set [1] (dose 0.01 mg/kg p.o.), the inhibition in vivo at 0.01 mg/kg came to 8.8%. Besides, the inhibition in vivo at 1 mg/kg in data set [1] (dose 1 mg/kg p.o.) came to 20.9%.
Turning to `O=C1N=C2SC=CN2C1(Cc1ccccc1)Cc1ccccc1` [compound 2, 5,5-dibenzylimidazo[2,1-b]thiazol-6(5H)-one], the melting point is > 300 °C. Further, the inhibition in vivo at 0.01 mg/kg in data set [1] (dose 0.01 mg/kg p.o.) was determined as 86.9%.
Taken in the same sequence, the figures for `O=C1N=C2N=CC=CN2C1(Cc1ccccc1)Cc1ccccc1` [compound 3, 3,3-dibenzylimidazo[1,2-a]pyrimidin-2(3H)-one] were > 300 °C and 60.3%.
Consider `O=C1N=C2C3=C(C=CN2C12CCCC2)CCCC3` [compound 30, spiro[7,8,9,10-tetrahydroimidazo[2,1-a]isoquinolin-2(3H)-one-3,1′-cyclopentane]], for which, in data set [1] (dose 1 mg/kg p.o.), the “Inhibitory rate (%)” value was 89.5** %.
`O=C1N=C2SCCN2C1(Cc1ccccc1)Cc1ccccc1` [compound 9, 5,5-dibenzyl-2,3-dihydroimidazo[2,1-b]thiazol-6(5H)-one] displayed a melting point of 233 to 236 °C. The inhibition in vivo at 0.01 mg/kg in data set [1] (dose 0.01 mg/kg p.o.) is 86.6%.
On to `Nc1c2c(nc3ccccc13)CCCC2` [compound B, 9-amino-1,2,3,4-tetrahydro-acridine, reference compound], for which the inhibition in vivo at 0.01 mg/kg in data set [1] (dose 0.01 mg/kg p.o.) came to 24.1%. In addition, the inhibition in vivo at 1 mg/kg in data set [1] (dose 1 mg/kg p.o.) amounted to 54.9%.
For `Cc1ccc(CC2(Cc3ccc(C)cc3)C(=O)N=C3SC=CN32)cc1` [compound 4, 5,5-bis(4-methylbenzyl)imidazo[2,1-b]thiazol-6(5H)-one], the melting point was > 300 °C. Besides, in data set [1] (dose 0.01 mg/kg p.o.), the inhibition in vivo at 0.01 mg/kg turned out to be 49.8%.
In the same order, the values of `N#Cc1ccc(CC2(Cc3ccc(C#N)cc3)C(=O)N=C3SC=CN32)cc1` [compound 5, 5,5-bis(4-cyanobenzyl)imidazo[2,1-b]thiazol-6(5H)-one] are 264 to 267 °C and 49.6%.

The melting point is the temperature, or range, at which the solid turns liquid.
